Where “and” joins values, the source holds several entries; their conditions need not be identical. Equal entries are not always repeated. Where two headings read alike, the source gives them in different places.
Tests used:
Assay in all cases: Greenhouse test, pre-emergence treatment
LOLMU = type: in vivo, Lolium multiflorum; details: pre-emergence, 8 g ai/ha
Outline: (§1)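 Damage was rated on a 0-100 scale, with 100 meaning no emergence or full destruction of aerial parts. Observed combination effects were set against the additive Colby expectation E=X+Y−(X·Y/100). Spray liquor was water-based, from 10% emulsion concentrates, applied pre-emergence right after sowing in loamy sand (about 3.0% humus). Plants were held at 10-25 °C or 20-35 °C for 2 to 4 weeks.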

ECHCG = type: in vivo, Echinocloa crus-galli
Outline: as §1

POLCO = type: in vivo, Polygonum convolvulus; details: pre-emergence
Outline: as §1

COMBE = type: in vivo, Commelina benghalensis; details: pre-emergence
Outline: as §1

AVEFA = type: in vivo, Avena fatua; details: Avena fatua, pre-emergence, 480 h, pre-emergence, read-out: observed % activity 20 DAT
Outline: as §1

EPHHL = type: in vivo, Euphorbia heterophylla; details: pre-emergence
Outline: as §1

BRADC = type: in vivo, Brachiaria decumbens; details: pre-emergence, pre-emergence
Outline: as §1

KCHSC = type: in vivo, Kochia scoparia; details: pre-emergence
Outline: as §1

[1] = Echinochloa crus-galli, 480 h, 4 g ai/ha, read-out: observed % activity 20 DAT
[2] = Fallopia convolvulus, 480 h, 4 g ai/ha, read-out: observed % activity 20 DAT
[3] = Commelina benghalensis, 480 h, 4 g ai/ha, read-out: observed % activity 20 DAT
[4] = Euphorbia heterophylla, 480 h, 8 g ai/ha, read-out: observed % activity 20 DAT
[5] = Bassia scoparia, 480 h, 4 g ai/ha, read-out: observed % activity 20 DAT
[6] = Bassia scoparia, 480 h, 8 g ai/ha, read-out: observed % activity 20 DAT

Nc1nc(Nc2c(F)c(F)cc(F)c2F)nc(C2(F)CCCC2)n1 [compound 9, 6-(1-fluorocyclopentyl)-N4-(2,3,5,6-tetrafluorophenyl)-1,3,5-triazine-2,4-diamine]
observed % activity 20 DAT (LOLMU): 80% | observed % activity 20 DAT (ECHCG; 2 g ai/ha): 70% | inhibition at 2 g/ha (ECHCG; Echinochloa crus-galli, 480 h, 2 g ai/ha, read-out: observed % activity 20 DAT): 75% | inhibition at 4 g/ha (ECHCG; [1]): 90% | pest or weed control at 4 g/ha (ECHCG; [1]): 85% | pest or weed control at 4 g/ha (POLCO; [2]): 20% | pest or weed control at 8 g/ha (POLCO; Fallopia convolvulus, 480 h, 8 g ai/ha, read-out: observed % activity 20 DAT): 80% | inhibition at 8 g/ha (POLCO; Fallopia convolvulus, 480 h, POLCO, individual, use rate 8 g ai/ha, read-out: observed % activity 20 DAT): 50% | inhibition at 16 g/ha (POLCO; Fallopia convolvulus, 480 h, POLCO, individual, use rate 16 g ai/ha, read-out: observed % activity 20 DAT): 70% | inhibition at 4 g/ha (POLCO; [2]): 20% | inhibition at 16 g/ha (POLCO; Fallopia convolvulus, 480 h, 16 g ai/ha, read-out: observed % activity 20 DAT): 80% | observed % activity 20 DAT (POLCO; 8 g ai/ha): 75% | observed % activity 20 DAT (COMBE; COMBE, individual, use rate 16 g ai/ha): 35% and 15% | pest or weed control at 4 g/ha (COMBE; [3]): 25% | pest or weed control at 8 g/ha (COMBE; Commelina benghalensis, 480 h, 8 g ai/ha, read-out: observed % activity 20 DAT): 65% | inhibition at 8 g/ha (COMBE; Commelina benghalensis, 480 h, COMBE, individual, use rate 8 g ai/ha, read-out: observed % activity 20 DAT): 20% | inhibition at 4 g/ha (COMBE; [3]): 25% | inhibition at 16 g/ha (COMBE; Commelina benghalensis, 480 h, 16 g ai/ha, read-out: observed % activity 20 DAT): 20% | observed % activity 20 DAT (COMBE; 16 g ai/ha): 35% | inhibition at 2 g/ha (AVEFA; 2 g ai/ha): 0% | inhibition at 8 g/ha (AVEFA; 8 g ai/ha): 0% | observed % activity 20 DAT (EPHHL; EPHHL, individual, use rate 8 g ai/ha): 30% | inhibition at 8 g/ha (EPHHL; Euphorbia heterophylla, 480 h, EPHHL, individual, use rate 8 g ai/ha, read-out: observed % activity 20 DAT): 25% | inhibition at 16 g/ha (EPHHL; Euphorbia heterophylla, 480 h, EPHHL, individual, use rate 16 g ai/ha, read-out: observed % activity 20 DAT): 15% | pest or weed control at 4 g/ha (EPHHL; Euphorbia heterophylla, 480 h, 4 g ai/ha, read-out: observed % activity 20 DAT): 25% | inhibition at 8 g/ha (EPHHL; [4]): 10% | pest or weed control at 8 g/ha (EPHHL; [4]): 10% | inhibition at 16 g/ha (EPHHL; Euphorbia heterophylla, 480 h, 16 g ai/ha, read-out: observed % activity 20 DAT): 20% | inhibition at 2 g/ha (BRADC; Urochloa decumbens, 480 h, 2 g ai/ha, read-out: observed % activity 20 DAT): 20% | inhibition at 4 g/ha (BRADC; Urochloa decumbens, 480 h, 4 g ai/ha, read-out: observed % activity 20 DAT): 55% | inhibition at 8 g/ha (BRADC; Urochloa decumbens, 480 h, 8 g ai/ha, read-out: observed % activity 20 DAT): 35% | observed % activity 20 DAT (BRADC; 4 g ai/ha): 40% | pest or weed control at 4 g/ha (KCHSC; [5]): 50% | pest or weed control at 8 g/ha (KCHSC; [6]): 85% | inhibition at 7 g/ha (KCHSC; Bassia scoparia, 480 h, KCHSC, individual, use rate 7 g ai/ha, read-out: observed % activity 20 DAT): 75% | inhibition at 8 g/ha (KCHSC; Bassia scoparia, 480 h, KCHSC, individual, use rate 8 g ai/ha, read-out: observed % activity 20 DAT): 90% | inhibition at 16 g/ha (KCHSC; Bassia scoparia, 480 h, KCHSC, individual, use rate 16 g ai/ha, read-out: observed % activity 20 DAT): 90% | inhibition at 4 g/ha (KCHSC; [5]): 70% | inhibition at 8 g/ha (KCHSC; [6]): 75% | inhibition at 16 g/ha (KCHSC; Bassia scoparia, 480 h, 16 g ai/ha, read-out: observed % activity 20 DAT): 90% | observed % activity 20 DAT (KCHSC; KCHSC, individual, use rate 16 g ai/ha): 80% | observed % activity 20 DAT (KCHSC; 16 g ai/ha): 80%
